Drawing on patent US20230295118A1 (EnhancedBio Inc., priority 2022, published 2023), this text covers IC50, DC50 and Dmax for six molecules.

Format in all cases: cell-based
Test [1] has as its system mantle cell lymphoma cell (Mino or JeKo-1). Put plainly: Antiproliferative effect, MTS cell viability assay. The following applies: 72 h, mantle cell lymphoma cell (Mino or JeKo-1), MTS assay, read-out: IC50 (anti-proliferation). On the procedure:
Antiproliferative effect of the exemplary compounds was assessed in B-cell malignancy models.
To assess the effect of the exemplary compounds on cell viability in B-cell malignancy models by degradation of CDK4/6 proteins, Mino cells were treated with varying concentrations of exemplary compounds (0, 0.0001, 0.001, 0.01, 0.1, 1 μM) or positive control (palbociclib and abemaciclib). Under these conditions, cell viability was determined by an MTS assay. Cytotoxicity was assayed by the determination of reduced tetrazolium (formazan) created by metabolically active cells as detected at 490 nanometers (nm) absorbance using a microplate reader (BMG Labtech, Cary, NC, USA).
The exemplary compounds attenuated the viability of Mino cells in a concentration-dependent manner at 72 h post treatment. Results are shown in Table 1 and FIGS. 2-15 for each exemplary compound.

The next test deals with T1, CDK6 (Homo sapiens, UniProt Q00534).
T1 construct: endogenous in cells
Put plainly: CDK6 degradation (DC50, Dmax).

The next test addresses T2, CDK4 (Homo sapiens, UniProt P11802).
T2 construct: endogenous in cells
Put plainly: CDK4 degradation (DC50, Dmax).

Each structure is given as a SMILES string.

T1 sequence (Q00534 whole entry): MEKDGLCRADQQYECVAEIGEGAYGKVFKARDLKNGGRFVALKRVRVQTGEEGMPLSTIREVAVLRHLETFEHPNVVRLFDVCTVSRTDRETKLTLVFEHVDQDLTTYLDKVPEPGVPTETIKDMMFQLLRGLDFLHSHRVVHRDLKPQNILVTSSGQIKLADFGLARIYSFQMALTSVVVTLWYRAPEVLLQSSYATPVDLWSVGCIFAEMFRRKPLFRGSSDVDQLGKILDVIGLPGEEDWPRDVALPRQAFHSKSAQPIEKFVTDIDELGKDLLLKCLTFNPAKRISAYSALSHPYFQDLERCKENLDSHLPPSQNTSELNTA
T2 sequence (P11802 whole entry): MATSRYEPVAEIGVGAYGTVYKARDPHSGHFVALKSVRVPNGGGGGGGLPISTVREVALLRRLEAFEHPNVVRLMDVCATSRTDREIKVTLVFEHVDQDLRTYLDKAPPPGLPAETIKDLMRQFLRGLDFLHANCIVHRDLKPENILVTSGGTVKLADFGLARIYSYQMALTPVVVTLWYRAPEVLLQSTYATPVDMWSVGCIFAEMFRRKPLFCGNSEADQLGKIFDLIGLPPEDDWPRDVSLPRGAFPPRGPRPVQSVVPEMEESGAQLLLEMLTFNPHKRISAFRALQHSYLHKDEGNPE

As usually defined, the DC50 is the concentration giving 50% degradation. The low end stands for a more potent degrader, the high end for a less potent degrader. Usually Dmax stands for the greatest extent of degradation seen. A low value points to shallow degradation. Turning to `Cc1nc2c(F)cc(-c3nc(Nc4ccc(CC5CCN(C(=O)C6CN(c7ccc(C(=O)NC8CCC(=O)NC8=O)cc7)C6)CC5)cn4)ncc3F)cc2n1C(C)C` (stereo not drawn) [Compound 145, N-(2,6-dioxopiperidin-3-yl)-4-(3-(4-((6-((5-fluoro-4-(4-fluoro-1-isopropyl-2-methyl-1H-benzo[d]imidazol-6-yl)pyrimidin-2-yl)amino)pyridin-3-yl)methyl)piperidine-1-carbonyl)azetidin-1-yl)benzamide], the IC50 in test [1] is less than 50 nM. At CDK6, this molecule returned a DC50 of 50 to 200 nM and a Dmax greater than 60%. On CDK4, this molecule yielded a DC50 of 50 to 200 nM and a Dmax greater than 60%.

Regarding `CC(=O)c1c(C)c2cnc(Nc3ccc(N4CCN(CCCNc5cc6c(cc5F)C(=O)N(C5CCC(=O)NC5=O)C6=O)CC4)cn3)nc2n(C2CCCC2)c1=O` (stereo not drawn) [Compound 51, 5-((3-(4-(6-((6-acetyl-8-cyclopentyl-5-methyl-7-oxo-7,8-dihydropyrido[2,3-d]pyrimidin-2-yl)amino)pyridin-3-yl)piperazin-1-yl)propyl)amino)-2-(2,6-dioxopiperidin-3-yl)-6-fluoroisoindoline-1,3-dione], in test [1], the IC50 is less than 50 nM. Moreover, at CDK6, the 50% degradation concentration (DC50) was 50 to 200 nM and the Dmax is greater than 80%. On CDK4, this molecule showed a DC50 of 50 to 200 nM and a maximal degradation (Dmax) greater than 80%.

As for `CC(=O)c1c(C)c2cnc(Nc3ccc(N4CCN(CCN5CCN(C(=O)Nc6ccc7c(c6)C(=O)N(C6CCC(=O)NC6=O)C7=O)CC5)CC4)cn3)nc2n(C2CCCC2)c1=O` (stereo not drawn) [Compound 43, 4-(2-(4-(6-((6-acetyl-8-cyclopentyl-5-methyl-7-oxo-7,8-dihydropyrido[2,3-d]pyrimidin-2-yl)amino)pyridin-3-yl)piperazin-1-yl)ethyl)-N-(2-(2,6-dioxopiperidin-3-yl)-1,3-dioxoisoindolin-5-yl)piperazine-1-carboxamide], the IC50 in test [1] fell in the range of 50 to 200 nM. Moreover, on CDK6, the DC50 was in the range of 50 to 200 nM and the maximal degradation (Dmax) is greater than 60%. At CDK4, this molecule had a DC50 of 50 to 200 nM and a Dmax greater than 60%.

Regarding `CC(=O)c1c(C)c2cnc(Nc3ccc(C4CCN(CC5CN(c6ccc(NC7CCC(=O)NC7=O)cc6)C5)CC4)cn3)nc2n(C2CCCC2)c1=O` (stereo not drawn) [Compound 128, 3-((4-(3-((4-(6-((6-acetyl-8-cyclopentyl-5-methyl-7-oxo-7,8-dihydropyrido[2,3-d]pyrimidin-2-yl)amino)pyridin-3-yl)piperidin-1-yl)methyl)azetidin-1-yl)phenyl)amino) piperidine-2,6-dione], the IC50 in test [1] was less than 50 nM. At CDK6, this molecule returned a DC50 of less than 50 nM and a Dmax greater than 80%. Moreover, on CDK4, the half-maximal degradation concentration (DC50) was less than 50 nM and the Dmax was greater than 80%.

On to `CC(=O)c1c(C)c2cnc(Nc3ccc(N4CCN(C5CCN(c6cccc7c6C(=O)N(C6CCC(=O)NC6=O)C7=O)CC5)CC4)cn3)nc2n(C2CCCC2)c1=O` (stereo not drawn) [Compound 77, 4-(4-(4-(6-((6-acetyl-8-cyclopentyl-5-methyl-7-oxo-7,8-dihydropyrido[2,3-d]pyrimidin-2-yl)amino)pyridin-3-yl)piperazin-1-y1)piperidin-1-yl)-2-(2,6-dioxopiperidin-3-yl) isoindoline-1,3-dione], for which the IC50 in test [1] lay within 50 to 200 nM. Also, the 50% degradation concentration (DC50) at CDK6 and at CDK4 was 50 to 200 nM throughout. In addition, the Dmax on CDK6 and at CDK4 was greater than 60% throughout.

Consider `CC(=O)c1c(C)c2cnc(Nc3ccc(N4CCN(CCCCN(C)c5ccc6c(c5)C(=O)N(C5CCC(=O)NC5=O)C6=O)CC4)cn3)nc2n(C2CCCC2)c1=O` (stereo not drawn) [Compound 59, 5-((4-(4-(6-((6-acetyl-8-cyclopentyl-5-methyl-7-oxo-7,8-dihydropyrido[2,3-d]pyrimidin-2-yl)amino)pyridin-3-yl)piperazin-1-yl)butyl)(methyl)amino)-2-(2,6-dioxopiperidin-3-yl) isoindoline-1,3-dione], for which the IC50 in test [1] was in the range of 50 to 200 nM. In addition, at CDK6, the DC50 lay within 50 to 200 nM and the Dmax is greater than 60%. At CDK4, this molecule registered a DC50 of 50 to 200 nM and a Dmax greater than 60%.
